Assay results reported in patent US10433539B2, “Composition and solution with controlled calcium ion level, and related method and use for reperfusion” (TEVOSOL, INC., priority 2014, dated 2019).

Tested on: harvested pig hearts
Conditions: 500 μmol/L lidocaine in cardioplegic compositions, combined data of Part 1 and Part 2 (1, 3, 5 hours)
Excerpt: Part 1: The next study assessed if there were potential incremental benefits to increasing the duration of reperfusion of harvested donor hearts with a mildly acidic hypocalcemic oxygenated cardioplegic composition.
The sample solutions used for these tests were the same as Sample solutions IIIC described above.

Structure (SMILES): CCN(CC)CC(=O)Nc1c(C)cccc1C [lidocaine]
- effect of lidocaine concentration on donor heart myocardial function: debilitating effects
